# Results from patent US20020049161A1, “Pharmaceutical combination preparations containing erythropoietin and iron preparations” (Roche Diagnostics GmbH, priority 1995, published 2002).
# Legend:
# [1] = test system: hemodialysis patients; experiment: Iron status and safety diagnostic parameters in hemodialysis patients under rhEPO/iron therapy; type: in vivo, human
# Protocol: When conducting the combination therapy using the combination preparation according to the invention, the maximum weekly dosage can be concluded in a quite simple fashion by determining the diagnostic parameters for the iron status, particularly the iron, transferrin, transferrin saturation and ferritin parameters.
# Preferably, the ferritin concentration is at least 125 μg/l, particularly at least 150 μg/l, and up to 270 μg/l at maximum, especially up to 250 μg/l at maximum. Advantageously, the iron concentration is between 10-20 μmol/l (corresponding to about 56-112 μg/dl) and the transferrin concentration between […] (corresponding to about 240-480 mg/dl) The transferrin saturation is defined as the ratio of serum/plasma iron concentration to serum/plasma transferrin concentration (multiplied by a correction factor of 1.41). It is a non-dimensional figure not depending on the patient's hydration condition. The transferrin saturation is calculated according to the formula: […]
# In order to safely exclude undesirable side effects, the acute phase parameter CRP (5 mg/l±100%) [CRP=C reactive protein) is measured, with CRP currently being regarded as the best protein marker of inflammatory reactions. In addition, the liver parameters GPT (glutamate pyruvate transaminase), GOT (glutamate oxalic acetate transaminase) and γ-GT (γ-glutamyltransferase) may be determined, which should fall within the following ranges: (determination at 37° C.): GPT: <50 U/l; GOT: <50 U/l; γ-GT: <40 U/l, with the GPT parameter currently ranking first in liver diagnostics.
# The determination of the iron status is effected by analyzing samples of body fluids (blood, serum, urine, etc.) from the patients in question. For the determination of the iron status, particularly the concentrations of iron, transferrin, ferritin, transferrin receptor, the transferrin saturation, and the transferrin/ferritin saturation are determined. With hemodialysis patients, the iron, transferrin, ferritin and transferrin saturation parameters are preferably determined according to per se common analytical methods. […]
# [2] = test system: anemia patients; experiment: Iron status and safety diagnostic parameters in anemia patients under rhEPO/iron therapy; type: in vivo, human
# Protocol: When conducting the combination therapy using the combination preparation of the invention to treat anemia, the weekly maximum dosage can be concluded in a quite simple fashion by determining the diagnostic parameters transferrin receptor (TfR), ferritin and the ratio of TfR to ferritin.
# Advantageously, the TfR concentration is between 1500-2500 μg/l. The concentration ratio of TfR (in μg/l) to ferritin (in μg/l) is particularly in the range of 15-35, preferably at values above 20.
# In order to safely exclude undesirable side effects, the acute phase parameter CRP (2-10 mg/l) [CRP=C-reactive protein) is measured. In addition, the liver parameter GPT (glutamate pyruvate transaminase) may be determined, which should be <50 U/l at 37° C. (<30 U/l at 25° C.). Furthermore, the hematological control parameters such as hematocrit (fraction of red blood cells in total volume) or the increase in hypochromic erythrocytes may optionally be utilized, wherein the reticulocytes may increase to a value of up to 15/1000-30/1000. The typical hemoglobin concentration is about 12-18 g/dl.
# The determination of the iron status is effected by analyzing samples of body fluids (blood, serum, urine, etc.) from the patients in question. For the determination of the iron status, particularly the concentrations of iron, transferrin, ferritin, transferrin receptor, the transferrin saturation, and the transferrin/ferritin saturation are determined. With hemodialysis patients, the iron, transferrin, ferritin and transferrin saturation parameters are preferably determined according to per se common analytical methods. In particular, the determination of the transferrin/ferritin saturation value is relevant. In the case of anemia patients whose anemia has not been caused by hemodialysis, the ferritin concentration and the concentration of transferrin receptor are determined above all. In particular, the determination of the ratio of transferrin receptor to ferritin (transferrin receptor/ferritin saturation value) is relevant.
# In addition, the serum ferritin level is determined. Ferritin is an iron-storing glycoprotein of which tissue-typical isoferritins are existing and which can be determined in the serum by immunological means, e.g., by a radioimmunoassay (RIA) or by turbidimetric methods as well. The ferritin value is a measure for iron storage in the tissue. In most of the laboratories, the normal range is between 30 and 300 ng/ml, and the geometrical mean value is 88 in males and 49 in females. The serum ferritin values are in close relationship to the total iron reserve of the body. Therefore, decreased serum ferritin levels are found only in case of iron deficiency. Increased levels are found in case of iron overloading. Likewise, increased serum ferritin levels are found in case of liver lesions or in association with some types of neoplasia, where ferritins may be bound to acute phase proteins. Similarly, the serum transferrin receptor may be determined using an enzyme-enhanced immune absorption test (enzyme-linked immunosorbent assay=ELISA), wherein a monoclonal antibody against the soluble receptor is used. The reference range is between 0.5-3 mg/l. The level is increased in case of slight deficiency in the iron depots. The concentrations of specific erythrocyte ferritins may be determined in order to characterize the iron depots, particularly if the serum ferritin cannot be utilized in case of tissue lesions or due to acute phase reactions.
# [3] = Patient B (hemodialysis), 5,000 U rhEPO three times a week over 3 weeks
# [4] = Patient E (anemia), 5,000 U rhEPO three times a week over 3 weeks
# [5] = Patient F (anemia), iron infusions omitted, within 3 weeks
substance,measurement,setting,value
recombinant human erythropoietin [rhEPO],ferritin value decreased to,[1]; [3],< 500 µg/L
same,transferrin saturation decreased to,[1]; [3],< 25%
same,ferritin values lowered to,"[1]; Patient C (hemodialysis), iron infusions omitted, within 3 weeks",500 µg/L
same,ferritin value decreased to,[2]; [4],< 500 µg/L
same,transferrin receptor value increased to,[2]; [4],above 1500 μg/l
same,transferrin saturation decreased to,[2]; [4],< 25%
same,ferritin values lowered to,[2]; [5],< 500 µg/L
same,transferrin receptor values increased to,[2]; [5],above 1500 μg/l
